What was measured:
[1] = target: T1, N-terminus His-tagged TRPV1 (without GFP) (Rattus norvegicus, UniProt O35433); experiment: 3H-RTx binding to intact S. cerevisiae cells expressing His-tagged TRPV1; conditions: 37°C, Figure 1F
T1 construct: expressed in transfected cells; host or cells: Saccharomyces cerevisiae (intact cells)
Experimental: To evaluate whether these constructs were competent to bind vanilloids, we initially measured the binding of [^3H]-RTx ([Szallasi and Blumberg, 1999]; [Szallasi et al., 1999]) to intact yeast cells expressing each of the constructs.
S. cerevisiae cells overexpressing TRPV1 constructs to be used in ligand binding assays on intact cells (Figure 1E,F) were grown as for small scale expression trials. 24 hr after protein induction cells were spun down at 4000g, the supernatant was removed and the pellet resuspended in 1x PBS, normalizing OD600 to 75 for each sample, and aliquoted for storage at -80°C. ^3H-RTx binding assays on cells were performed at 37°C as previously described ([Feng et al., 2015]), but where non-specific binding of RTx was measured using cells expressing GFP alone. The binding of RTx to TRPV1 and TRPV2 in membranes (e.g. Figure 2A,B and 5C) was performed at 37°C unless otherwise stated using membranes prepared from large scale protein preparations of S. cerevisiae containing rat TRPV1 and TRPV2 with a 1D4 tag expressed using a constitutive promoter as in [Moiseenkova-Bell et al., 2008]. Data for binding of RTx to membranes was corrected for non-specific binding, determined using either excess non-radioactive ligand or heat inactivation of the protein, as previously described ([Feng et al., 2015]). […]

WT TRPV2 = target: T2, WT TRPV2 (Rattus norvegicus, UniProt Q9WUD2); experiment: Two-electrode voltage-clamp in Xenopus oocytes, WT TRPV2; assay type: cell-based; conditions: 100 nM RTx
T2 construct: expressed in transfected cells; host or cells: Xenopus oocytes (cRNA injection, pGEM-HE)
T2 sequence (Q9WUD2 whole entry): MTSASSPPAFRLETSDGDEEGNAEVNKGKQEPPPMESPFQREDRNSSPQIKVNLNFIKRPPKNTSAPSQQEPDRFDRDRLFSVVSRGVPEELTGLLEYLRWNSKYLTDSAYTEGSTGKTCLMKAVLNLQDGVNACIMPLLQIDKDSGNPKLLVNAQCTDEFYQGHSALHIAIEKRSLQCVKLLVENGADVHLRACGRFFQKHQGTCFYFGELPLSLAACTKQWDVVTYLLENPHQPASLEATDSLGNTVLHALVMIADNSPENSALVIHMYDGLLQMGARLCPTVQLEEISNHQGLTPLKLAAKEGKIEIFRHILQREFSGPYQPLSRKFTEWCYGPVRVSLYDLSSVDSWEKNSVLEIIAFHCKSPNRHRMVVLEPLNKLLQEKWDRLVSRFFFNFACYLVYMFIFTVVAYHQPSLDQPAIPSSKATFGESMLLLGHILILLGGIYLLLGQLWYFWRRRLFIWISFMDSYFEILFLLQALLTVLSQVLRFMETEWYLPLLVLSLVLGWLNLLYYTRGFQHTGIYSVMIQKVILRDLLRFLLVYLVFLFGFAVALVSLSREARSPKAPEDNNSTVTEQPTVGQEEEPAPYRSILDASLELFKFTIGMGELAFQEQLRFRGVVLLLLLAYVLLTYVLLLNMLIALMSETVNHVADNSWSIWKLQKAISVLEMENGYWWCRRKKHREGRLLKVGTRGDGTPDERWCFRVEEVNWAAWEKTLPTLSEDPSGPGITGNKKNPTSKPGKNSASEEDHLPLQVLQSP
Source text: (§1) To further investigate the putative vanilloid binding pocket in TRPV1, we inspected the cryo-EM structure of TRPV1, looking for residues that are located nearby to the putative RTx density (Figure 1B; regions/residues highlighted in yellow) and that differ between TRPV1 and TRPV2 channels (Figure 3—figure supplement 1; regions highlighted in magenta). […] To quantify the contribution of each of these residues to TRPV1 channel activation by RTx under our experimental conditions, we mutated each to the corresponding residue in TRPV2. We then expressed each construct in oocytes and used the two electrode voltage-clamp technique to study activation by RTx and by the non-specific TRPV channel activator 2-APB. We recorded time courses for channel activation by each agonist while stepping the membrane potential from −60 to +60 mV every 3 s from a holding potential of 0 mV using an external recording solution containing 100 mM KCl (internal K^+ concentration in a healthy oocyte is 100 mM) (Figure 3A, left). We also recorded current-voltage (I-V) relations by stepping over a wider range of voltages in the absence and presence of activators, or in the presence of ruthenium red (RR), a non-specific inhibitor of TRP channels (Figure 3A, right). […]

[2] = target: T3, TRPV1 triple mutant that left S512 intact (Rattus norvegicus, UniProt O35433, E570Q/M547L/T550L); experiment: Two-electrode voltage-clamp in Xenopus oocytes, TRPV1 triple mutant with S512 intact; assay type: cell-based; conditions: 100 nM RTx
T3 construct: expressed in transfected cells; host or cells: Xenopus oocytes (cRNA injection)
T3 sequence (O35433 whole entry M547L/T550L/E570Q): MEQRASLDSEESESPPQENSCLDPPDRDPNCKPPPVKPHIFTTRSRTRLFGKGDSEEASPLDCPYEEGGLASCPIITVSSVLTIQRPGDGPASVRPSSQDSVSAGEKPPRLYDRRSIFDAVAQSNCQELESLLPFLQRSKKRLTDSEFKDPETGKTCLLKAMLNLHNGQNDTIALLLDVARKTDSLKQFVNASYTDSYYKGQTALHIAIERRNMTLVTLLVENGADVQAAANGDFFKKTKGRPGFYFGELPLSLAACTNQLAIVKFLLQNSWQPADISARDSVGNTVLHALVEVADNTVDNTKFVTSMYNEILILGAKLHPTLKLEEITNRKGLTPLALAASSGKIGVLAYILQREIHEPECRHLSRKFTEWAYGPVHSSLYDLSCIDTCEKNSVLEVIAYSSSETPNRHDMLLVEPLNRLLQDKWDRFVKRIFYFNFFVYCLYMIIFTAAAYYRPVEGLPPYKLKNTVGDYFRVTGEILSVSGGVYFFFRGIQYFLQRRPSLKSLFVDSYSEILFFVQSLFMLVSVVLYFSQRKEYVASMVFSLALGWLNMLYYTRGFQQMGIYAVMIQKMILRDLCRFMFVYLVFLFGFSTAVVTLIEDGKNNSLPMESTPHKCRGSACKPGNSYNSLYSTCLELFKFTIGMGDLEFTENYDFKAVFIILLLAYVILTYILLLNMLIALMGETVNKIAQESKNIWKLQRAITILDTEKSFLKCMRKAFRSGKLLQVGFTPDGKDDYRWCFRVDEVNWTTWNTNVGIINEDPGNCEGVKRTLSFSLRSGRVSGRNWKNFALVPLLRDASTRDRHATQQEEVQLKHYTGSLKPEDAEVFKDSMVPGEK
Source text: as §1

T1 sequence (O35433 whole entry): as the sequence (O35433 whole entry M547L/T550L/E570Q) above, with L547M, L550T, Q570E counted along it

## C=C(C)[C@]12C[C@@H](C)[C@@]34O[C@](Cc5ccccc5)(O[C@@H]1[C@@H]3C=C(COC(=O)Cc1ccc(O)c(OC)c1)C[C@]1(O)C(=O)C(C)=C[C@@H]41)O2 [RTx, resiniferatoxin]
[1]
  Hill slope (nH): 0.6
[1]; read-out: Kd of 3H-RTx binding (Hill fit)
  Kd: 30 nM
WT TRPV2
  channel activation by RTx: completely insensitive
[2]
  channel activation by RTx: retained sensitivity
